Test systems include A498 renal; NCI-H522 lung; SF-539 CNS; SK-OV-3 ovarian; NCI-H226 lung; A549 NSCLC; SN12C renal; COLO 205 colon; EKVX NSCLC; RPMI-8226 leukemia.
Assay in all cases: NCI-60 cell line screen, 48 h

Where “and” joins values, the source holds several entries; their conditions need not be identical. Equal entries are not always repeated.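 Values below derive from 48-hour exposures of cells grown in 96-well plates, with endpoints linearly interpolated between the two concentrations bracketing the appropriate inhibition level. The concentration for 50% growth inhibition is given as GI50. TGI marks complete inhibition of growth.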

With `CC1=CC2CC(C)=C(CC[C@]3(C)CC[C@H]([C@@H](C)C(=O)O)OO3)C(C)(C)C2CC1` (stereo partly drawn), the TGI worked out at 3.14 µM in the assay on A498 renal; 0.383 µM in the assay on NCI-H522 lung; 2.68 µM in the assay on SF-539 CNS; 3.68 µM with SK-OV-3 ovarian; 3.45 µM in the assay with NCI-H226 lung; 1.06 µM in the assay with A549 NSCLC. Further, the TGI was 1.9 µM in the assay on SN12C renal, 1.36 µM in the assay with COLO 205 colon and 3.64 µM with EKVX NSCLC.
For the compound `NS(=O)(=O)c1ccc(NC(=O)c2ccc(NC3=C(Cl)C(=O)N(Cc4ccccc4)C3=O)cc2)cc1`, the GI50 with A498 renal is 14.9 µM; in the assay on NCI-H522 lung, 1.91 µM; in the assay with SF-539 CNS, 4.59 µM; in the assay on SK-OV-3 ovarian, 41 µM; in the assay on NCI-H226 lung it was 2.12 µM; in the assay with A549 NSCLC it was 29.1 µM. The GI50 in the assay with COLO 205 colon was 15.1 µM; with EKVX NSCLC it was 61.9 µM. Besides, the TGI in the assay with A498 renal was 32.6 µM; in the assay with NCI-H522 lung, 4.78 µM; in the assay on SF-539 CNS it was 22 µM; with SK-OV-3 ovarian, greater than 100 µM; in the assay with NCI-H226 lung it was 5.91 µM; with A549 NSCLC, greater than 100 µM. Also, the TGI in the assay on COLO 205 colon and in the assay with EKVX NSCLC was greater than 100 µM in each case.
As to `CCC1(C)NN=c2s/c(=C/c3ccc(OC)cc3)c(=O)n2N1` (stereo not drawn), the TGI with NCI-H522 lung, in the assay on SF-539 CNS, with SK-OV-3 ovarian, in the assay on NCI-H226 lung, in the assay with A549 NSCLC and in the assay on SN12C renal was greater than 100 µM in each case. The TGI in the assay on COLO 205 colon and in the assay with EKVX NSCLC was greater than 100 µM each time.
For `CC(C)=CCN=C(N)N`, the TGI is greater than 100 µM in the assay with NCI-H522 lung; greater than 100 µM in the assay with SF-539 CNS; 99.7 µM with RPMI-8226 leukemia; greater than 100 µM in the assay on SK-OV-3 ovarian; greater than 100 µM in the assay on NCI-H226 lung; greater than 100 µM in the assay with A549 NSCLC. Further, the TGI with SN12C renal, in the assay on COLO 205 colon and with EKVX NSCLC was greater than 100 µM in each case.
Take `CCSc1nnc2c(-c3ccccc3)n[nH]c2n1`: the TGI in the assay on NCI-H522 lung, in the assay with SF-539 CNS, in the assay with RPMI-8226 leukemia, in the assay on SK-OV-3 ovarian, in the assay with NCI-H226 lung and in the assay on A549 NSCLC was greater than 100 µM in each case. Besides, the TGI with COLO 205 colon and with EKVX NSCLC was greater than 100 µM in each case.
Regarding `CC1=NN(C(=O)c2ccccc2O)C(=O)/C1=C/c1ccc([N+](=O)[O-])cc1`, the GI50 with NCI-H522 lung was 2.03 µM; in the assay on SF-539 CNS it was 0.476 µM; in the assay on RPMI-8226 leukemia it was 0.784 µM; with SK-OV-3 ovarian it was 1.6 µM; in the assay with NCI-H226 lung, 0.23 µM; with A549 NSCLC, 0.357 µM. Also, the values for the GI50 in the assay with SN12C renal, with COLO 205 colon and in the assay with EKVX NSCLC were 2.06 µM, 7.43 µM and 2.68 µM, respectively. The TGI with NCI-H522 lung was 7.06 µM and 12.9 µM; in the assay with SF-539 CNS, 2.57 µM and 2.52 µM; with RPMI-8226 leukemia it was greater than 100 µM; with SK-OV-3 ovarian it was greater than 100 µM; in the assay with NCI-H226 lung, 7.93 µM and 25.1 µM; in the assay with A549 NSCLC, greater than 100 µM. Besides, the values for the TGI in the assay on SN12C renal, with COLO 205 colon and in the assay on EKVX NSCLC were greater than 26.5 µM, greater than 88 µM and greater than 100 µM, respectively.
Take `CC/C(Cc1ccccc1)=C(\c1ccc(OCCN2CCCCCC2)cc1)c1ccc(OC(=O)NCc2ccccc2)cc1`: the GI50 with NCI-H522 lung was 1.9 µM; in the assay on SF-539 CNS it was 2.43 µM; in the assay with RPMI-8226 leukemia it was 1.16 µM; with SK-OV-3 ovarian, 7.59 µM; with NCI-H226 lung, 8.14 µM; in the assay on A549 NSCLC, 2.48 µM. In addition, the GI50 is 1.83 µM with SN12C renal, 1.01 µM with COLO 205 colon and 6.29 µM in the assay with EKVX NSCLC. Further, the TGI in the assay with NCI-H522 lung is 7.35 µM; in the assay on SF-539 CNS, 8.84 µM; in the assay on RPMI-8226 leukemia, 2.87 µM; in the assay on SK-OV-3 ovarian it was 15.2 µM; in the assay on NCI-H226 lung, 17.5 µM; in the assay with A549 NSCLC, 8.64 µM. Besides, the TGI turned out to be 6.71 µM in the assay with SN12C renal, 1.99 µM in the assay with COLO 205 colon and 14.1 µM in the assay on EKVX NSCLC.
Regarding `Nc1nc(CCC(=O)Nc2cccc(C(F)(F)F)c2)cc(-c2cccc3ccccc23)n1`, the TGI in the assay with A498 renal, in the assay with NCI-H522 lung, in the assay with SF-539 CNS, in the assay on SK-OV-3 ovarian, in the assay on NCI-H226 lung and in the assay with A549 NSCLC was greater than 100 µM in each case. In addition, the TGI in the assay with SN12C renal, in the assay on COLO 205 colon and in the assay on EKVX NSCLC was greater than 100 µM in each case.
As to `O=C1OC(=O)c2c1c(-c1ccccc1)cn2-c1ccc(Cl)cc1`, the TGI in the assay with NCI-H522 lung, in the assay on SF-539 CNS, with RPMI-8226 leukemia, in the assay on SK-OV-3 ovarian, in the assay with NCI-H226 lung and in the assay on A549 NSCLC was greater than 100 µM in each case. The TGI in the assay on SN12C renal is greater than 100 µM; in the assay on COLO 205 colon it was 37.5 µM; in the assay with EKVX NSCLC it was greater than 100 µM.
As to `c1ccc(SC2(Sc3ccccc3)CCCC2)cc1`, the TGI in the assay on A498 renal, with NCI-H522 lung, with SF-539 CNS, with RPMI-8226 leukemia, in the assay with SK-OV-3 ovarian and with A549 NSCLC was greater than 100 µM in each case. The TGI in the assay with SN12C renal, with COLO 205 colon and in the assay on EKVX NSCLC was greater than 100 µM each time.
For the compound `NNC(=S)N/N=C(\CCCC(=O)NCCc1ccccc1)CC(=O)c1ccccc1`, the TGI in the assay with A498 renal, with NCI-H522 lung, in the assay with SF-539 CNS, with A549 NSCLC, in the assay with SN12C renal and in the assay with COLO 205 colon was greater than 100 µM each time. The TGI in the assay on EKVX NSCLC was greater than 100 µM.
In the case of `O=C(O)CN(c1ccccc1)S(=O)(=O)c1ccc(NC(=O)c2ccccc2)cc1`, the TGI in the assay with A498 renal, in the assay on NCI-H522 lung, in the assay with SF-539 CNS, in the assay on RPMI-8226 leukemia, in the assay with SK-OV-3 ovarian and in the assay on A549 NSCLC was greater than 100 µM throughout. In addition, the TGI with SN12C renal, in the assay with COLO 205 colon and in the assay on EKVX NSCLC was greater than 100 µM throughout.
For the compound `COc1ccc(S(=O)(=O)NC(C)C(=O)O)cc1` (stereo not drawn), the TGI in the assay on A498 renal, with NCI-H522 lung, in the assay on SF-539 CNS, in the assay on RPMI-8226 leukemia, in the assay on SK-OV-3 ovarian and in the assay with A549 NSCLC was greater than 100 µM throughout. The TGI in the assay on SN12C renal, in the assay on COLO 205 colon and in the assay with EKVX NSCLC was greater than 100 µM in each case.

The values above are taken from PubChem BioAssay (NCI).
